This passage reports EC50 results from US8642585B2, “Indanyloxydihydrobenzofuranylacetic acids” (Boehringer Ingelheim International GmbH, priority 2012, dated 2014).

Experiment [1] concerns the target T1, human GPR40 receptor (Homo sapiens, UniProt O14842). Put plainly: Assay I: IP1 accumulation (IPOne HTRF) in 1321N1 cells stably expressing human GPR40. The experiment is classed as cell-based. Particulars: 1321N1 cells expressing human GPR40, stimulation 1 hour at 37° C., 10% CO2, final LiCl 50 mM. On the procedure:
IP1 accumulation measurements using the IPOne assay system—1321N1 cells stably expressing human GPR40 receptor (Euroscreen, Belgium) are seeded 24 h before the assay in black clear-bottom collagen-coated 384-well plates in culture medium containing 10% FCS, 1% Na-Pyruvate and 400 μg/mL G418. IP1 is assayed according to the Manufacturers description (Cisbio Bioassays, France). In brief, the assay is started by substitution of the culture medium by stimulation buffer (Hepes 10 mM, CaCl2 1 mM, MgCl2 0.5 mM, KCl 4.2 mM, NaCl 146 mM and glucose 5.5 mM, pH 7.4) without LiCl. Cells are stimulated for 1 hour at 37° C., 10% CO2 by addition of the compounds that are diluted in stimulation buffer containing LiCl yielding a final LiCl concentration of 50 mM. Assays are stopped by adding HTRF-conjugates (IP1-d2 and Anti-IP1 cryptate Tb) and lysis buffer, provided by the manufacturer. After an incubation time of 1 hour at room temperature plates are measured using an EnVision™, Perkin Elmer. The obtained fluorescence ratios at 665/615 nM are then used to calculate the pEC50 values using GraphPad Prism 5 (Graphpad Software Inc, USA) by interpolation using an IP1 reference curve and subsequent sigmoidal curve fitting allowing for a variable hill slope.
Background: TR-FRET usually uses a lanthanide donor and a delayed reading to cut background.

The target in experiment [2] is T1, human GPR40 receptor. Put plainly: Assay II: IP1 accumulation (IPOne HTRF) in 1321N1 cells stably expressing human GPR40. The following applies: 1321N1 cells expressing human GPR40, stimulation 1 h at 37° C., 5% CO2, LiCl 50 mM. The experiment is classed as cell-based. A digest of the protocol: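 1321N1 cells stably expressing human GPR40, seeded 24 h earlier, were stimulated with compound for 1 h at 37 °C in LiCl (50 mM) buffer, pH 7.4. IP1 measured by HTRF (665/615 ratio) after lysis and 1 h room temperature; pEC50 via IP1 reference curve and variable-slope sigmoidal fit.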

Usually EC50 stands for the concentration needed to bring the measured effect to its halfway point. A low value points to higher potency in that assay.

T1 sequence (O14842 whole entry): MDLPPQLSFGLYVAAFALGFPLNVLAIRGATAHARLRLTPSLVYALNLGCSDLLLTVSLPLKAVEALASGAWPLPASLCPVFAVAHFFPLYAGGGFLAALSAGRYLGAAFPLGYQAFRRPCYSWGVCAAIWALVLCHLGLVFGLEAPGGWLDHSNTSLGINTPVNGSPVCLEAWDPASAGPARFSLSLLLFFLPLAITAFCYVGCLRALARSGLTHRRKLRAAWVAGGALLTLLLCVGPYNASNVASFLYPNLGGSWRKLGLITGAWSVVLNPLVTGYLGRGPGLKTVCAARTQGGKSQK

In turn, `Cc1cc(OCC2(C)COC2)cc(C)c1-c1ccc(F)c2c1CC[C@H]2Oc1ccc2c(c1)OC[C@H]2CC(=O)O` [Example 1, 2-((S)-6-((R)-4-(2,6-dimethyl-4-((3-methyloxetan-3-yl)methoxy)phenyl)-7-fluoro-2,3-dihydro-1H-inden-1-yloxy)-2,3-dihydrobenzofuran-3-yl)acetic acid] registered a concentration giving a half-maximal response (EC50) at human GPR40 receptor [1] of 4 nM.
In turn, `Cc1cc(OCC2CCS(=O)(=O)CC2)cc(C)c1-c1ccc(F)c2c1CC[C@H]2Oc1ccc2c(c1)OC[C@H]2CC(=O)O` [Example 28, 2-((S)-6-((R)-4-(2,6-Dimethyl-4-((1,1-dioxo-tetrahydro-2H-thiopyran-4-yl)methoxy)phenyl)-7-fluoro-2,3-dihydro-1H-inden-1-yloxy)-2,3-dihydrobenzofuran-3-yl)acetic acid] yielded a 50% effective concentration (EC50) on human GPR40 receptor [1] of 6 nM.
With `Cc1cc(OCC[S+](C)[O-])cc(C)c1-c1ccc(F)c2c1CC[C@H]2Oc1ccc2c(c1)OC[C@H]2CC(=O)O` (stereo partly drawn) [Example 5, 2-((3S)-6-((1R)-4-(2,6-Dimethyl-4-(2-(methylsulfinyl)ethoxy)phenyl)-7-fluoro-2,3-dihydro-1H-inden-1-yloxy)-2,3-dihydrobenzofuran-3-yl)acetic acid], the EC50 on human GPR40 receptor [1] worked out at 19 nM.
In turn, `Cc1cc(O[C@H]2CCOC2)cc(C)c1-c1ccc(F)c2c1CC[C@H]2Oc1ccc2c(c1)OC[C@H]2CC(=O)O` [Example 8, 2-((S)-6-((R)-4-(2,6-Dimethyl-4-((S)-tetrahydrofuran-3-yloxy)phenyl)-7-fluoro-2,3-dihydro-1H-inden-1-yloxy)-2,3-dihydrobenzofuran-3-yl)acetic acid] gave a concentration giving a half-maximal response (EC50) at human GPR40 receptor [1] of 4 nM.
Same read-out and setting: the figure for `Cc1cc(C2=CCN(S(C)(=O)=O)CC2)cc(C)c1-c1ccc(F)c2c1CC[C@H]2Oc1ccc2c(c1)OC[C@H]2CC(=O)O` [Example 25, 2-((S)-6-((R)-4-(2,6-dimethyl-4-(1-(methylsulfonyl)-1,2,3,6-tetrahydropyridin-4-yl)phenyl)-7-fluoro-2,3-dihydro-1H-inden-1-yloxy)-2,3-dihydrobenzofuran-3-yl)acetic acid] is 35 nM; for `CCS(=O)(=O)N1CC(COc2cc(C)c(-c3ccc(F)c4c3CC[C@H]4Oc3ccc4c(c3)OC[C@H]4CC(=O)O)c(C)c2)C1` [Example 30, 2-((S)-6-((R)-4-(4-((1-(Ethylsulfonyl)azetidin-3-yl)methoxy)-2,6-dimethylphenyl)-7-fluoro-2,3-dihydro-1H-inden-1-yloxy)-2,3-dihydrobenzofuran-3-yl)acetic acid] it is 7 nM.
In turn, `Cc1c(C(N)=O)cccc1-c1ccc(F)c2c1CC[C@H]2Oc1ccc2c(c1)OC[C@H]2CC(=O)O` [Example 59, 2-((3S)-6-((1R)-4-(3-Carbamoyl-2-methylphenyl)-7-fluoro-2,3-dihydro-1H-inden-1-yloxy)-2,3-dihydrobenzofuran-3-yl)acetic acid] registered an EC50 at human GPR40 receptor [1] of 117 nM.
On the same count and under the same terms, the figure for `Cc1cc(-c2cnn(C)c2)cc(C)c1-c1ccc(F)c2c1CC[C@H]2Oc1ccc2c(c1)OC[C@H]2CC(=O)O` [Example 19, 2-((S)-6-((R)-4-(2,6-Dimethyl-4-(1-methyl-1H-pyrazol-4-yl)phenyl)-7-fluoro-2,3-dihydro-1H-inden-1-yloxy)-2,3-dihydrobenzofuran-3-yl)acetic acid] is 3 nM; for `Cc1cc(OC2CCS(=O)(=O)CC2)cc(C)c1-c1ccc(F)c2c1CC[C@H]2Oc1ccc2c(c1)OC[C@H]2CC(=O)O` [Example 32, 2-((S)-6-((R)-4-(2,6-Dimethyl-4-(1,1-dioxo-tetrahydro-2H-thiopyran-4-yloxy)phenyl)-7-fluoro-2,3-dihydro-1H-inden-1-yloxy)-2,3-dihydrobenzofuran-3-yl)acetic acid] it is 26 nM; for `Cc1cc(OC2CN(S(C)(=O)=O)C2)cc(C)c1-c1ccc(F)c2c1CC[C@H]2Oc1ccc2c(c1)OC[C@H]2CC(=O)O` [Example 26, 2-((S)-6-((R)-4-(2,6-Dimethyl-4-(1-(methylsulfonyl)azetidin-3-yloxy)phenyl)-7-fluoro-2,3-dihydro-1H-inden-1-yloxy)-2,3-dihydrobenzofuran-3-yl)acetic acid] it is 17 nM.
Same read-out and setting: to `Cc1cc(OCC2(C)CN(S(C)(=O)=O)C2)cc(C)c1-c1ccc(F)c2c1CC[C@H]2Oc1ccc2c(c1)OC[C@H]2CC(=O)O` [Example 39, ((S)-6-{(R)-7-Fluoro-4-[4-(1-methanesulfonyl-3-methyl-azetidin-3-ylmethoxy)-2,6-dimethyl-phenyl]-indan-1-yloxy}-2,3-dihydro-benzofuran-3-yl)-acetic acid] belongs 8 nM.
Still for that read-out and setting: the figure for `Cc1cc(-c2cncnc2)cc(C)c1-c1ccc(F)c2c1CC[C@H]2Oc1ccc2c(c1)OC[C@H]2CC(=O)O` [Example 17, 2-((S)-6-((R)-4-(2,6-Dimethyl-4-(pyrimidin-5-yl)phenyl)-7-fluoro-2,3-dihydro-1H-inden-1-yloxy)-2,3-dihydrobenzofuran-3-yl)acetic acid] is 4 nM; for `Cc1cc(O[C@@H]2CCOC2)cc(C)c1-c1ccc(F)c2c1CC[C@H]2Oc1ccc2c(c1)OC[C@H]2CC(=O)O` [Example 9, 2-((S)-6-((R)-4-(2,6-Dimethyl-4-((R)-tetrahydrofuran-3-yloxy)phenyl)-7-fluoro-2,3-dihydro-1H-inden-1-yloxy)-2,3-dihydrobenzofuran-3-yl)acetic acid] it is 9 nM.
With `Cc1cc(OCc2ccnn2C)cc(C)c1-c1ccc(F)c2c1CC[C@H]2Oc1ccc2c(c1)OC[C@H]2CC(=O)O` [Example 151, 2-((S)-6-((R)-4-(2,6-dimethyl-4-((1-methyl-1H-pyrazol-5-yl)methoxy)phenyl)-7-fluoro-2,3-dihydro-1H-inden-1-yloxy)-2,3-dihydrobenzofuran-3-yl)acetic acid], the EC50 at human GPR40 receptor [1] was 3 nM. Against the preceding molecule, the EC50 is about 3-fold lower.
Still for that read-out and setting: the figure for `Cc1c(OCCCS(C)(=O)=O)cccc1-c1ccc(F)c2c1CC[C@H]2Oc1ccc2c(c1)OC[C@H]2CC(=O)O` [Example 58, 2-((3S)-6-((1R)-7-Fluoro-4-(2-methyl-3-(3-(methylsulfonyl)propoxy)phenyl)-2,3-dihydro-1H-inden-1-yloxy)-2,3-dihydrobenzofuran-3-yl)acetic acid] is 58 nM.
`Cc1cc(C2CCOCC2)cc(C)c1-c1ccc(F)c2c1CC[C@H]2Oc1ccc2c(c1)OC[C@H]2CC(=O)O` [Example 80, 2-((S)-6-((R)-4-(2,6-Dimethyl-4-(tetrahydro-2H-pyran-4-yl)phenyl)-7-fluoro-2,3-dihydro-1H-inden-1-yloxy)-2,3-dihydrobenzofuran-3-yl)acetic acid]: the midpoint of the response on human GPR40 receptor [2], the EC50, lay at 11 nM.
For `Cc1cc(OCC2CCOCC2)cc(C)c1-c1ccc(F)c2c1CC[C@H]2Oc1ccc2c(c1)OC[C@H]2CC(=O)O` [Example 150, 2-((S)-6-((R)-4-(2,6-dimethyl-4-((tetrahydro-2H-pyran-4-yl)methoxy)phenyl)-7-fluoro-2,3-dihydro-1H-inden-1-yloxy)-2,3-dihydrobenzofuran-3-yl)acetic acid], it took 6 nM to reach a half-maximal effect at human GPR40 receptor [2] (EC50).
The molecule `Cc1cnc(-c2cc(C)c(-c3ccc(F)c4c3CC[C@H]4Oc3ccc4c(c3)OC[C@H]4CC(=O)O)c(C)c2)cn1` [Example 114, {(S)-6-[(R)-4-(2,6-Dimethyl-4-(5-methyl-pyrazin-2-yl)-phenyl)-7-fluoro-indan-1-yloxy]-2,3-dihydro-benzofuran-3-yl}-acetic acid] returned a concentration for a half-maximal effect (EC50) on human GPR40 receptor [2] of 2 nM.
`Cc1cc(OCCCCS(C)(=O)=O)cc(C)c1-c1ccc(F)c2c1CC[C@H]2Oc1ccc2c(c1)OC[C@H]2CC(=O)O` [Example 43, ((S)-6-{(R)-7-Fluoro-4-[4-(4-methanesulfonyl-butoxy)-2,6-dimethyl-phenyl]-indan-1-yloxy}-2,3-dihydro-benzofuran-3-yl)-acetic acid] came in with a 50% effective concentration (EC50) at human GPR40 receptor [2] of 22 nM.
Molecule `Cc1cc(-c2nnn(C)n2)cc(C)c1-c1ccc(F)c2c1CC[C@H]2Oc1ccc2c(c1)OC[C@H]2CC(=O)O` [Example 95, 2-((S)-6-((R)-4-(2,6-Dimethyl-4-(2-methyl-2H-tetrazol-5-yl)phenyl)-7-fluoro-2,3-dihydro-1H-inden-1-yloxy)-2,3-dihydrobenzofuran-3-yl)acetic acid] showed an EC50 on human GPR40 receptor [2] of 3 nM.
`Cc1cc(O[C@@H]2CCN(S(C)(=O)=O)C2)cc(C)c1-c1ccc(F)c2c1CC[C@H]2Oc1ccc2c(c1)OC[C@H]2CC(=O)O` [Example 44, ((S)-6-{(R)-7-Fluoro-4-[4-((R)-1-methanesulfonyl-pyrrolidin-3-yloxy)-2,6-dimethyl-phenyl]-indan-1-yloxy}-2,3-dihydro-benzofuran-3-yl)-acetic acid] yielded a concentration giving a half-maximal response (EC50) at human GPR40 receptor [2] of 17 nM.
In turn, `Cc1cc(OC2CCN(S(C)(=O)=O)CC2)cc(C)c1-c1ccc(F)c2c1CC[C@H]2Oc1ccc2c(c1)OC[C@H]2CC(=O)O` [Example 48, ((S)-6-{(R)-7-Fluoro-4-[4-(1-methanesulfonyl-piperidin-4-yloxy)-2,6-dimethyl-phenyl]-indan-1-yloxy}-2,3-dihydro-benzofuran-3-yl)-acetic acid] gave a 50% effective concentration (EC50) on human GPR40 receptor [2] of 14 nM.
